Key:
BON-1 cells = assay: Viable cell count in vitro, BON-1; format: cell-based, human; conditions: 0 to 100 μg/ml BVZ, 5 days
Procedure: FIG. 18. Effects of treatment with BVZ and MIT on the growth of and gene expression in human carcinoid cells in vitro. A. H727 and BON-1 cells were incubated for 5 days in a medium alone or a medium containing 25 to 100 μg/ml BVZ. The viable cells were counted. B. H727 cells were incubated for 5 days in a medium alone or a medium containing 100 μg/ml BVZ. Total protein lysates were harvested from the cell cultures, and the level of Sp1 and VEGF protein expression was determined using Western blot analysis. Equal protein-sample loading was monitored by probing the same membrane filter with an anti-GAPDH. C. H727 and BON-1 cells were treated with MIT at concentrations ranging from 0.1 to 2.5 μM for 24 hours. Cytotoxicity was assessed using the MTT assay.
Effects of treatment with BVZ and MIT on the growth of and gene expression in human LGNET cells. To further determine whether treatment with BVZ directly impacts gene expression in LGNET cells, we incubated H727 and BON-1 cells in a medium alone or a medium containing 0 to 100 μg/ml BVZ for 5 days.

Sp1, VEGF, CD31 (MVD) = assay: Gene expression and microvessel formation in PANC-1 tumor tissues; format: in vivo, nude mice
Procedure: FIG. 13. Analysis of gene expression and microvessel formation in tumor tissues. The tumor tissues described in FIG. 2 were collected and processed as described in Materials and Methods. A, total protein lysates were harvested from tumor tissues, and the level of protein expression was determined using Western blot analysis. Equal protein-sample loading was monitored by probing the same membrane filter with an anti-β-actin antibody. NS, nonspecific. B, the levels of Sp1 and VEGF expression were quantitated and expressed as fold change. C, MVD was quantitated according to CD31 staining. D, immunohistochemical staining was performed using specific antibodies against Sp1, VEGF, and CD31. Representative photos of the stains are shown.
Western blot analysis. Whole-cell lysates were prepared from human pancreatic cancer cell lines and tissues (23). Standard Western blotting was performed using polyclonal rabbit antibodies against human and mouse Sp1, VEGF, and EGFR (Santa Cruz Biotechnology, Santa Cruz, Calif.) and the anti-rabbit IgG antibody, a horseradish peroxidase-linked F(ab′)2 fragment obtained from a donkey (Amersham, Arlington Heights, Ill.). Equal protein-sample loading was monitored by probing the same membrane filter with antibodies against anti-β-actin or glyceraldehyde-3-phosphate dehydrogenase (GAPDH) (23). The probe proteins were detected using the Amersham enhanced chemiluminescence system according to the manufacturer's instructions.
Immunohistochemical analysis and quantification of tumor MVD. For CD31 staining, frozen tissue sections (5 μm thick) were fixed in acetone. Endogenous peroxidase in the specimens was blocked using 3% hydrogen peroxide in phosphate-buffered saline (PBS) for 12 minutes. […] For quantification of tumor MVD, vessels on each section were counted in five high-power fields (magnification, ×200 [×20 objective and ×10 ocular]) as described previously (41). […]

bevacizumab [BVZ]
cell growth in vitro (BON-1 cells): did not affect the growth
MVD (Sp1, VEGF, CD31 (MVD); CD31 staining, low-dose BVZ or MIT alone): did not significantly reduce MVD
expression of platelet-derived growth factor, IGF-R, and EGFR in tumor tissue (Sp1, VEGF, CD31 (MVD); Western blot, data not shown): upregulated the expression of other proangiogenic molecules
Sp1 and VEGF expression in tumor tissue (Sp1, VEGF, CD31 (MVD); Western blot, mice treated with PBS, BVZ, MIT, or B+M (low doses)): increased expression of Sp1 and its downstream molecule VEGF
